Source: patent publication US6849645B2, “Method of increased bioavailability of nutrients and pharmaceutical preparations with tetrahydropiperine and its analogues and derivatives” (priority 2000, dated 2005)

Experiments:
Earthworms = assay: Albendazole induced anthelmintic activity on earthworms (paralysis and death); format: in vivo, earthworm
Description: An experiment to see how tetrahydropiperine enhances the skin permeability of anthelmintic drugs such as albendazole on intestinal worms was conducted. However, as a preliminary study towards this, tests on earthworms were conducted.
Earthworms were obtained from the Al Ameen College of Pharmacy, Bangalore. Albendazole (Zentel) was obtained from Smith Kline Beecham Pharmaceuticals, Bangalore. The aqueous test solution contained tetrahydropiperine (Tetraperine™, A proprietary product of Sabinsa Corporation, USA) of 0.1% and 0.2% w/v suspended in 0.25% w/v sodium carboxy methyl cellulose.
1. Effect of Albendazole: Earth worms of similar length and weight were divided into three groups of six worms each. […] The time of onset of paralysis was noted and the death of the worms were observed and recorded as above.

[1] = format: in vitro ADME, mouse
Description: The drug (100 ug/ml) was applied with 0.1% (active sample) or without (control sample) of THP in the donor compartment. Subsequently the absorbencies of the fluid in the receptor compartment for the presence of BMDP and THP were measured in time intervals of 5, 10, 15, 20, 30, 45 and 60 minutes.
Franz diffusion cell was utilized in the experiment. This is an in vitro set-up prepared from the graft of the abdominal skin of mouse to evaluate absorption of drugs and nutrients through the skin. The Franz diffusion cell contains Donor and Receptor compartments. The test drug, BMDP, with or without tetrahydropiperine (Control) was applied on one side of the skin (Donor compartment). The drug's transport to the Receptor side of the skin was estimated by UV method at pre-determined time intervals. […]
The hydrated skin was mounted on Franz diffusion cell with shaved surface facing the donor compartment. […] Absorbance of each sample was measured by UV spectrophotometer at the wavelength of 256 nm. • b. […] Absorbance of each sample was measured by UV spectrophotometer at the wavelength of 256 nm.
UV absorption Spectra of BMDP solutions show absorption at 238 nm when prepared in saline with tween 20 solution. […] Tetrahydropiperine gave absorbance at 228 nm and 275 nm. • 2. The absorbance of tetrahydropiperine was minimum at 256 nm while it was good for BMDP. […]

[2] = tested on: tobacco cut worm, Spodoptera litura F.; assay: whole plant or invertebrate; conditions: Spodoptera litura, in Nicotiana tabacum, 48 h, read-out: PERCENT MORTALITY (Mean of 4 replications)
Description: The tetrahydropiperine was tested against tobacco cut worm, Spodoptera litura F. to determine its possible increased kill rate when used with Fenvalerate—a synthetic pyrethroid.
• a. Preparation of test solution—0.5 g of the test product was dissolved in 1 ml of Ethanol and made up to 100 ml in standard volumetric flask using suitable emulsifier. This solution contains 5000 ppm a.i. (0.5 percent). Further, serial dilution was made to get 0.25, 0.125 and 0.0625% of the test product. To each of these test solutions, Fenvalerate was added to get 250 ppm of Fenvalerate a.i. in the final volume. For comparison 0.5 percent of Tetrahydropiperine, Ethanol 1.0 percent solution and 250 ppm a.i. of Fenvalerate was used. • b. Bioassay—Laboratory reared 7 day old larvae of tobacco cut worm, Spodoptera litura were used in the experiment. After a series of preliminary tests the concentrations chosen for the experiment were 0.5, 0.25, 0.125 and 0.0625 percent tetrahydropiperine. Fresh castor leaves were dipped for 30 seconds in above concentrations of test and standard compounds and blank solutions. After proper drying, the treated leaves were transferred to plastic containers. To each container 5 larvae were released. This was repeated four times so as to have 20 larvae for each concentration. Larvae in control set were fed with leaves dipped in water. Observations were recorded for larval mortality after 48 hours of exposure. Results

[3] = Franz diffusion cell, in vitro transdermal permeation of Forskolin with or without tetrahydropiperine; format: in vitro ADME, rat
Description: In vitro permeation studies of Forskholin, a diterpenoid compound which has various therapeutic effects (Bronchodilation—used in Asthma, prevents platelet aggregation, anti hypertensive, anti glaucoma and anti-inflammatory) was carried out. Fabricated Franz diffusion cells of capacity 67 and 69 ml were used for the study. Freshly excised rat abdominal skin was used for the permeation studies.
Solutions Used in the Study • a) 2.5% Forskolin in methanol. • b) 0.05% Tetrahydropiperine in 2.5% Forskolin in methanol. • c) 0.1% Tetrahydropiperine in 2.5% Forskolin in methanol. Procedure
Freshly excised rat abdominal […] was mounted on the Franz diffusion Cell, the outer layer of the skin facing the donor compartment. The receptor fluid was maintained at 35° C. using a thermostatic magnetic stirrer.
The study was conducted by replacing the medium in the receptor compartment with methanol instead of phosphate buffer. In both the receptor and donor compartment methanol was used as the medium in the permeation studies.
(§1) In the donor compartment 2 ml methanol containing 50 mg of Forskolin and tetrahydropiperine (5% of Forskolin conc.) was taken. Receptor compartment consisted of 69 ml of methanol maintained at 35° C. Permeation study was carried out for a period of 1 hr. Samples were withdrawn at 15, 30 and 60 minutes intervals and the amount of Forskholin present was analyzed by HPLC.
as §1, with “Forskholin” for “Forskolin and tetrahydropiperine (5% of Forskolin conc.)”, “65” for “69”, “hour.” for “hr.”

CCCSc1ccc2nc(NC(=O)OC)[nH]c2c1 [Albendazole, reference compound]
Time taken in minutes (Mean ± SEM), Paralysis (Earthworms; Albendazole 0.2% w/v alone): 99.0 ± 3.93 min | time until anthelmintic activity (Earthworms; albendazole 0.1%): > 2 h | time until anthelmintic activity (Earthworms; albendazole 0.2%): ≤ 2 h

CCC(=O)OCC(=O)[C@@]1(OC(=O)CC)[C@@H](C)C[C@H]2[C@@H]3CCC4=CC(=O)C=C[C@]4(C)[C@@]3(F)[C@@H](O)C[C@@]21C [BMDP, Betamethasone dipropionate]
amount of drug (BMDP) diffused in control [1]: undetectable

CC(C)C(C(=O)OC(C#N)c1cccc(Oc2ccccc2)c1)c1ccc(Cl)cc1 (centres unmarked) [Fenvalerate, reference compound]
mortality at 250 ppm [2]: 55%

C=C[C@@]1(C)CC(=O)[C@]2(O)[C@@]3(C)[C@@H](O)CCC(C)(C)[C@@H]3[C@H](O)[C@H](OC(C)=O)[C@@]2(C)O1 [Forskolin, reference compound]
Forskolin Release Control ([3]; Forskolin 50 mg in methanol without THP, 15 min): 1.28 | Forskolin Release Control ([3]; Forskolin without THP, 30 min): 4.05 | Forskolin Release Control ([3]; Forskolin without THP, 60 min): 8.45
